Data taken from PMC11475281, “A Novel Liver Cancer-Selective Histone Deacetylase Inhibitor Is Effective against Hepatocellular Carcinoma and Induces Durable Responses with Immunotherapy” (ACS Pharmacology & Translational Science, 2024).
pIC50: −log10 of the molar value. Read-outs that look alike come from different tables or passages of the source.

Columns and labels:
VERO cells = experiment: Immunoblotting of cleaved Caspase 3; type: cell-based; conditions: same concentrations as in Hep-G2
Protocol: (§1) Figure 3 Effects of STR-V-53 on intracellular markers of HDAC inhibition, antitumor immune response, and apoptosis. (a) STR-V-53 upregulates the levels of acetylated H4 and tubulin in Hep-G2 cells. Hep-G2 cells were treated with DMSO or 0.1% DMSO solution of SAHA (1.25 μM) and STR-V-53 (1.25 μM, 2.5 μM). Cells were treated for 5 h before lysis. Data are from two independent experiments. (b) STR-V-53 upregulates PD-L1 and downregulates PD-1 expressions in Hep-G2 cells. Cells were treated with DMSO or 0.1% DMSO solution of SAHA (5 μM and 10 μM) and STR-V-53 (10 and 20 μM) for 24 h. (c) STR-V-53 and SAHA caused upregulation of the levels of CD54 in the Hep-G2 cell line. Cells were treated with DMSO or 0.1% DMSO solution of SAHA (5 and 10 μM) and STR-V-53 (5, 10, and 20 μM) for 24 h. […] Cells were treated with DMSO or 0.1% DMSO solution of SAHA (5 μM) and STR-V-53 (10 and 20 μM).

[1] = GLUT-2 uptake experiment (phloretin blockade, MTS); type: cell-based; conditions: African green monkey, VERO cells, No addition of Ph, read-out: VERO Cell Viability %
Protocol: We observed that Ph selectively mitigated the cytotoxicity of STR-V-53 against the Hep-G2 cell line with no apparent effect on the cytotoxicity of SAHA (Figure 2a). […] This matches our expectation because Hep-G2 cells overexpress GLUT-2 while VERO has limited expression of GLUT-2.[26] […]
Hep-G2 or VERO cells were seeded (2500 to 4,000 counts/well) into 96-well plates, in which each well contains 100 µL media. The cells were cultured overnight in the respective media described in the cell culture section above. On day 2, the cells were treated with 25 µM Phloretin for 24 h. On day 3, 200x stock solutions of STR-V-53 and SAHA were used to prepare 2x treatment solution by adding 1% stock solution in the media. Then, without removal of the media in 96-well plates, the same volumes of drug as the media were added directly to the wells with gentle pipetting to reach 1x drug solution with 25 µM Ph. After another 72 h, the media were removed, and new media (100 µL) added to the wells. MTS solution (20 µL) was added to each well. After 2.5-4 h incubation, the plates were read using a multiplate reader at 490 nm. The data were processed using GraphPad Prism 8. […]

Hep-G2 cells = experiment: Immunoblotting of acetylated histone H4 and α-tubulin; type: cell-based, human; conditions: for Acetylation status of histone H4 and α-tubulin: at 1/4 IC50 and 1/2 IC50
Description: To determine the contributions of HDAC inhibition to the antiproliferative activities of the glycosylated HDACi compounds, immunoblotting was used to investigate the acetylation status of histone H4 and α-tubulin, biomarkers for HDAC class I and class IIb intracellular inhibition, respectively,[27] in Hep-G2 cells in response to exposure to representative compounds STR-V-53, STR-V-114, and STR-I-195. We used SAHA as a positive control for HDAC inhibition and GAPDH level as a protein loading control.
as §1
10-017-CV), supplemented with 10% fetal bovine serum (FBS) (Corning, 35-010-CV). Hep-G2 cells were cultured in phenol red-free Minimum Essential Medium (MEM) (Corning, 17-305-CV), supplemented with 10% fetal bovine serum (FBS). SK-Hep-1 in ATCC-formulated EMEM (ATCC® 30–2003™); Huh-7 in DMEM (containing 4 mM L-glutamine and 1 g/L glucose) with […]
Kupffer Cell Media (Sekisui XenoTech, LLC, Cat. #K8700). Cells were seeded into a 96-well plate (2000 counts/100uL) for 24 h prior to treatment and then treated with various drug concentrations for 72 h. All drugs were dissolved in media with DMSO concentration maintained at 1%. The effect of compounds on cell viability was measured using the MTS assay (CellTiter 96 Aqueous One Solution and CellTiter 96 Non-Radioactive Cell Proliferation Assays, Promega, Madison, WI) as described by the manufacturer. IC50s were determined using Prism GraphPad 8.
Western blot protocol was described in our previous works 24,25. In brief, Hep-G2 cells were seeded into a 6-well plate at 1*106/well in MEM for 24-48 h prior to treatment. Various concentrations of SAHA, STR-V-53, STR-V-114, and STR-I-195 solutions in DMSO were added to the cell culture such that the final DMSO level was 0.1%. Cells were treated for 24 h, washed with cold PBS, and lysed with RIPA buffer (120 µL) (VWR, VWRVN653 -100ML) containing phosphatase inhibitor (Fisher Thermo, A32957) and protease inhib itor (Fisher Thermo, A32955). The cell lysates were scraped, collected, and vortexed for 15 s, followed by sonication for 60 s. The lysate was centrifuged at 14000x rpm for 10 min, and the supernatants were collected. The total protein concentration was determined using a BCA protein assay kit (BioVision, K813-2500). Based on the results from the […], the lysates were diluted to make equal protein concentration, and 40 µg of each lysate was loaded to each wel l of the TGX […]
MIDI 4-20% gel (Biorad, cat. 5671093) and ran at 150 V for 70 min. […] After washing with TBS-T 3x5 mins, bands were quantified using the Odyssey CLx Image system. […]

HDAC8 = biological target: T1, HDAC8 (Homo sapiens, UniProt Q9BY41); experiment: HDAC isoform inhibition (BPS Bioscience)
T1 sequence (Q9BY41 1-377): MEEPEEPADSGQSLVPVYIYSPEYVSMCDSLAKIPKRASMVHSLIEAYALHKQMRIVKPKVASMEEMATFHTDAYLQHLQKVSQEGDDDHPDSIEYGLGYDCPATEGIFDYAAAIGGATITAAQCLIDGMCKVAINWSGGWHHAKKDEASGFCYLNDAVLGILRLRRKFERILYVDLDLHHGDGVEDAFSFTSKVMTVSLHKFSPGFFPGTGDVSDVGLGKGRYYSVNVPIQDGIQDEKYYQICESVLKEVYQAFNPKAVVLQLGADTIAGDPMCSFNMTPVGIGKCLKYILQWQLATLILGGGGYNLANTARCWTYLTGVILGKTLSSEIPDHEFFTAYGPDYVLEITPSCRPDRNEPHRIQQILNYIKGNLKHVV

For `O=C(CCCCCCC(=O)Nc1ccccc1)NO` [SAHA, vorinostat, reference compound], the “Caspase 3 cleavage” value (VERO cells) was “induced cleavage of Caspase 3”, the viability at 72 h, 6.5 µM ([1]; 6.5 μM) was 97.7% and the viability at 72 h, 12.5 µM ([1]; 12.5 μM) was 17.1%.

In the case of `O=C(CCCCCCn1cc(-c2ccc(O[C@@H]3O[C@H](CO)[C@@H](O)[C@H](O)[C@H]3O)cc2)nn1)NO` [STR-I-195], the “Caspase 3 cleavage” value (VERO cells) was “did not induce cleavage of Caspase 3”, the “Acetylation of H4 and α-Tubulin” value (Hep-G2 cells; 0.5 μM) was “did not show significant acetylation” and the “Acetylation of H4” value (Hep-G2 cells; 1.25 μM and 2.5 μM) was “mild acetylation”. For the same compound, the “Acetylation of α-Tubulin” value (Hep-G2 cells; 1.25 μM and 2.5 μM) was “significant acetylation” and the pIC50 (HDAC8; read-out: HDAC8 IC50, Table S1) was 6.33.

With `O=C(CCCCCCn1cc(-c2ccc(O[C@H]3O[C@H](CO)[C@@H](O)[C@H](O)[C@H]3O)cc2)nn1)NO` [STR-V-53] the “Caspase 3 cleavage” value (VERO cells) was “did not induce cleavage of Caspase 3”, the “Acetylation status of histone H4 and α-tubulin” value (Hep-G2 cells) was “induced accumulation of acetylated H4 and acetylated tubulin” and the viability at 72 h, 75 µM ([1]; 75μM) was 98.4%. The viability at 72 h, 100 µM ([1]; 100μM) was 77.8% and the pIC50 (HDAC8) was 6.07.

With `O=C(CCCCCCn1cc(-c2ccc3cc(O[C@H]4O[C@H](CO)[C@@H](O)[C@H](O)[C@H]4O)ccc3c2)nn1)NO` [STR-V-114] the “Acetylation status of histone H4 and α-tubulin” value (Hep-G2 cells) was “induced accumulation of acetylated H4 and acetylated tubulin” and the pIC50 (HDAC8; read-out: HDAC8 IC50, Table S1) was 5.67.
